MIC data for two compounds are collected here from ChEMBL document CHEMBL4325868, “Design, synthesis and antitubercular activity of 4-alkoxy-triazoloquinolones able to inhibit the M. tuberculosis DNA gyrase” (Eur J Med Chem, 2019).

Holding throughout (format): functional
Experiment [1] has as its system Mycobacterium tuberculosis. Briefly: Antitubercular activity against multidrug resistant Mycobacterium tuberculosis isolate 571 after 7 days by resazurin microtiter assay. Conditions: isolate 571, 168 h. For orientation: The colour change of resazurin is a common sign of viable cells or microbes.
Experiment [2] has as its system Mycobacterium tuberculosis. The experiment can be described thus: Antitubercular activity against isoniazid resistant Mycobacterium tuberculosis isolate 1358 after 7 days by resazurin microtiter assay. Particulars: isolate 1358, 168 h.
Experiment [3] relates to Mycobacterium tuberculosis. The experiment can be described thus: Antitubercular activity against isoniazid/ethambutol resistant Mycobacterium tuberculosis isolate 368 after 7 days by resazurin microtiter assay. Conditions: isolate 368, 168 h.
Experiment [4] has as its system Mycobacterium tuberculosis. Briefly: Antitubercular activity against ciprofloxacin resistant Mycobacterium tuberculosis isolate 600 after 7 days by resazurin microtiter assay. Particulars: isolate 600, 168 h.
The subject of experiment [5] is Mycobacterium tuberculosis. The experiment can be described thus: Antitubercular activity against ciprofloxacin resistant Mycobacterium tuberculosis isolate 1670 after 7 days by resazurin microtiter assay. Particulars: isolate 1670, 168 h.
Experiment [6] deals with Mycobacterium tuberculosis. Briefly: Antitubercular activity against multidrug resistant Mycobacterium tuberculosis isolate 1120 after 7 days by resazurin microtiter assay. Particulars: isolate 1120, 168 h.
The subject of experiment [7] is Mycobacterium tuberculosis. The experiment can be described thus: Antitubercular activity against streptomycin resistant Mycobacterium tuberculosis isolate 157 after 7 days by resazurin microtiter assay. Particulars: isolate 157, 168 h.
Experiment [8] deals with Mycobacterium tuberculosis. The experiment can be described thus: Antitubercular activity against multidrug resistant Mycobacterium tuberculosis isolate 512 after 7 days by resazurin microtiter assay. Particulars: isolate 512, 168 h.
The test system of experiment [9] is Mycobacterium tuberculosis. Briefly: Antitubercular activity against multidrug resistant Mycobacterium tuberculosis isolate 7 after 7 days by resazurin microtiter assay. Particulars: isolate 7, 168 h.
Experiment [10] deals with Mycobacterium tuberculosis. The experiment can be described thus: Antitubercular activity against streptomycin resistant Mycobacterium tuberculosis isolate 203 after 7 days by resazurin microtiter assay. Conditions: isolate 203, 168 h.
For experiment [11], the system named is Mycobacterium tuberculosis. Briefly: Antitubercular activity against streptomycin/isoniazid/ethambutol resistant Mycobacterium tuberculosis isolate 1097 after 7 days by resazurin microtiter assay. Particulars: isolate 1097, 168 h.
The subject of experiment [12] is Mycobacterium tuberculosis. The experiment can be described thus: Antitubercular activity against streptomycin resistant Mycobacterium tuberculosis isolate 204 after 7 days by resazurin microtiter assay. Conditions: isolate 204, 168 h.
For experiment [13], the system named is Mycobacterium tuberculosis. The experiment can be described thus: Antitubercular activity against rifampicin resistant Mycobacterium tuberculosis isolate 952 after 7 days by resazurin microtiter assay. Particulars: isolate 952, 168 h.
The test system of experiment [14] is Mycobacterium tuberculosis. The experiment can be described thus: Antitubercular activity against rifampicin/ethambutol resistant Mycobacterium tuberculosis isolate 1726 after 7 days by resazurin microtiter assay. Particulars: isolate 1726, 168 h.

SMILES strings stand for the structures. In brackets after ≈: the same amount, converted by molar mass.

What is called MIC is the smallest concentration in the dilution series that meets the test's criterion for growth inhibition. On to `COc1cc2c(=O)c(C(=O)O)cn(C)c2c2nnn(C)c12`, for which the minimum inhibitory concentration (MIC) in [1] stood at 16 µM (≈ 4.61 µg/mL); in experiment [2], 16 µM (≈ 4.61 µg/mL); in experiment [3] it was 8 µM (≈ 2.31 µg/mL); in [4], 16 µM (≈ 4.61 µg/mL); in experiment [5] it was 16 µM (≈ 4.61 µg/mL); in experiment [6], 4 µM (≈ 1.15 µg/mL). Further, the MIC came to 8 µM (≈ 2.31 µg/mL) in experiment [7]; 8 µM (≈ 2.31 µg/mL) in [8]; 4 µM (≈ 1.15 µg/mL) in experiment [9]; 16 µM (≈ 4.61 µg/mL) in experiment [10]; 32 µM (≈ 9.22 µg/mL) in experiment [11]; 8 µM (≈ 2.31 µg/mL) in experiment [12]. In addition, the MIC in [13] was 32 µM (≈ 9.22 µg/mL); in experiment [14], 16 µM (≈ 4.61 µg/mL).

For the compound `O=C(O)c1cn(C2CC2)c2cc(N3CCNCC3)c(F)cc2c1=O` [CIPROFLOXACIN], the MIC in experiment [4] worked out at 4 µM (≈ 1.33 µg/mL); in experiment [5], 16 µM (≈ 5.3 µg/mL); in [8], 8 µM (≈ 2.65 µg/mL).
